“And” between values parts separate entries of the source, which are not always exact repeats. Equal values may be shown once. Where a name gives a salt, the structure may show the parent alone. Read-outs that look alike come from different tables or passages of the source.
Tests used:
[1] = molecular target: T1, horse serum butyrylcholinesterase (Equus caballus, UniProt P81908); experiment: biochemical; details: for inhibition at 10 µg/mL: read-out: % Inhibition ± S.D. at 10.0 µg·mL^−1 BChE; for IC50: read-out: BChE Inhibition IC50 (converted)
T1 construct: horse serum butyrylcholinesterase (EC 3.1.1.8, Sigma, St. Louis, MO, USA); purchased Sigma, St. Louis, MO, USA; host or cells: horse serum
T1 sequence (P81908 whole entry): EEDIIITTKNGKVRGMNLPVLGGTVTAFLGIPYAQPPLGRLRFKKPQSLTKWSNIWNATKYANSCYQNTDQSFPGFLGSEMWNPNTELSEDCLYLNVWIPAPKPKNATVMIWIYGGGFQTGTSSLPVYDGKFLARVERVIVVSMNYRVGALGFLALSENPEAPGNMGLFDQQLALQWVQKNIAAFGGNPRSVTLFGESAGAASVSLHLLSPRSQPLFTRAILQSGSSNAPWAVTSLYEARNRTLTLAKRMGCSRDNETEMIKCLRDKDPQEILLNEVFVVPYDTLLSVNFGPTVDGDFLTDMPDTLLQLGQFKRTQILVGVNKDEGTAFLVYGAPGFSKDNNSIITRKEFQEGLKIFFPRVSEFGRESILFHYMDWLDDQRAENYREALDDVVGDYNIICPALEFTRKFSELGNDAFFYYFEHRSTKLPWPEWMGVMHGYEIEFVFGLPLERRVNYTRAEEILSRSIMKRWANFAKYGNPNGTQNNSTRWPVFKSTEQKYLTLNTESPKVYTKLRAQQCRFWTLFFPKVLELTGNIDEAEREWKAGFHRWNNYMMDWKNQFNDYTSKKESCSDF
Protocol: (§1) A modified spectrophotometric method of Ellman et al. was used for the determination of inhibitory activity against AChE and BChE. Electric eel acetylcholinesterase (Type-VI-S, EC 3.1.1.7, Sigma, St. Louis, MO, USA) and horse serum butyrylcholinesterase (EC 3.1.1.8, Sigma, St. Louis, MO, USA) were used as the test enzymes and acetylthiocholine iodide and butyrylthiocholine chloride (Sigma, St. Louis, MO, USA) were employed as the respective substrates. The ChE activity was evaluated with the detection reagent 5,5′-dithio-bis(2-nitrobenzoic) acid (DTNB, Sigma, St. Louis, MO, USA). All the other reagents and conditions were the same as described in our previous publication. In brief, the following reaction mixture was added by a multichannel automatic pipette (Gilson Pipetman, Villiers Le Bel, France) in a 96-well microplate and incubated for 15 min at 25 °C: 140 µL of […] sodium phosphate buffer (pH 8.0), 20 µL of […] DTNB, 20 µL of sample solutions (0.1–10 µg/mL) and 20 µL of acetylcholinesterase/butyrylcholinesterase solution (0.2 µM). The reaction was then initiated with the addition of 10 µL of acetylthiocholine iodide or butyrylthiocholine chloride (2 mM). […] Galanthamine (Sigma, St. Louis, MO, USA)—an alkaloid isolated from snowdrop—was employed as the reference inhibitory drug.
(§2) The measurements and calculations were performed using SoftMax PRO 4.3.2.LS software (Molecular Devices, San Jose, CA, USA). […] The extent of the enzymatic reaction was calculated based on the following equation: E = (C − T)/C × 100, where E is the activity of the enzyme. E expresses the effect of the test sample or the positive control on acetylcholinesterase and butyrylcholinesterase enzyme activity expressed as the percentage of the […] in the presence of the test sample or positive control. C is the absorbance of the control solvent (blank) in the presence of an enzyme, and T is the absorbance of the tested sample (plant extract or positive control in the solvent) in the presence of an enzyme.
(§3) Statistical differences between the reference and the sample groups were evaluated by one-way ANOVA (Statistica 13PL, StatSoft, Cracow, Poland) with Dunnett’s multiple comparison post-hoc test for which p < 0.05 was considered to be significant (* p < 0.05; ** p < 0.01; *** p < 0.001, **** p < 0.0001).

[2] = molecular target: T1, horse serum butyrylcholinesterase; experiment: biochemical; details: BChE; for assumed competitive inhibition, substrate concentration = 1 mM; read-out: Ki app
[3] = molecular target: T2, Electric eel acetylcholinesterase (Electrophorus electricus, UniProt O42275); experiment: biochemical; details: for inhibition at 10 µg/mL: read-out: % Inhibition ± S.D. at 10.0 µg·mL^−1 AChE, at 10.0 µg·mL^−1; for IC50: read-out: AChE IC50
T2 construct: purchased Sigma, St. Louis, MO, USA Type-VI-S
T2 sequence (O42275 24-633): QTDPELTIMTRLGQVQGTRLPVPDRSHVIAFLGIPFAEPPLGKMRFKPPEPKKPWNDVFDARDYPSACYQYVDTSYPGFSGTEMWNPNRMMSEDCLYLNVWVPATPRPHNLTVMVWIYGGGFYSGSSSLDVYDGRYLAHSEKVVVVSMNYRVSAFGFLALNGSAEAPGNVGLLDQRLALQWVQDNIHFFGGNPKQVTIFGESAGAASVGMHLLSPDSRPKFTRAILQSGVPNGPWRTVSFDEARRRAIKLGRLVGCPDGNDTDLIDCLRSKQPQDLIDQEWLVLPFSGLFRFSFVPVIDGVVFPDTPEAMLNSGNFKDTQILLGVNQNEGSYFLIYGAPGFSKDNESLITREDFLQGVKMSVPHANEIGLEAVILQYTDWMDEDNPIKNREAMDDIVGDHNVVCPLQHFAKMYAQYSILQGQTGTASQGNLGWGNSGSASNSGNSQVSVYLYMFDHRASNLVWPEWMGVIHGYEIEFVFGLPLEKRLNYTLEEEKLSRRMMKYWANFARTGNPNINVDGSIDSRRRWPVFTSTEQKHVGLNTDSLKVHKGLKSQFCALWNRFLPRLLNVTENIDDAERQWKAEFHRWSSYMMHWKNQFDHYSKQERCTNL
Protocol: as §1, §2, §3

cholinesterase = details: cited from earlier work
[4] = system: several cancer cell lines; details: isolated from rhizomes of Salvia tebesana Bunge; cited from earlier work

Molecule | % Inhibition ± S.D. at 10.0 µg·mL^−1 BChE ([1]; at 10.0 µg·mL^−1) | inhibition at 10 µg/mL ([1]; at 10.0 µg·mL^−1) | IC50 [1] | Ki [2] | also measured
CC(=O)O[C@@H]1CCC(C)(C)c2ccc3c(c21)C(=O)C(=O)C1=C3OC[C@@H]1C [Compound 1, (1R,15R)-1-acetoxycryptotanshinone] | 95.9 ± 0.0% | 95.9% | 2.4 µM and 2.37 µM | 1.34 µM | 
CC(=O)O[C@@H]1CCC(C)(C)c2ccc3c(c21)C(=O)C(=O)c1c(C)coc1-3 [Compound 2, (1R)-1-acetoxytanshinone IIA] | 85.3 ± 4.3% | 85.3% | 7.9 µM and 7.86 µM | 4.59 µM | 
C[C@H]1COC2=C1C(=O)C(=O)c1cc3c(cc12)C(C)(C)CCC3=O [Compound 3, (R)-3,10,10-trimethyl-2,3,9,10-tetrahydroanthra[1,2-b]furan-4,5,7(8H)-trione] | 87.3 ± 1.0% | 87.3% | 50.8 µM | 30 µM | inhibition at 10 µg/mL [3]: ≤ 50%; IC50 [3]: 330 µM
Cc1cc2c(cc(O)c1=O)C1(CO)CCCC(C)(C)C1CC2 (centres unmarked) [Compound 4, isograndifoliol] |  | 98.6% | 0.9 µM and 0.893 µM and 0.89 µM | 0.47 µM | inhibition at 10 µg/mL [3]: ≤ 50%; IC50 [3]: > 340 µM and 343 µM; BChE Inhibition IC50 [1]: below one micromole
COc1ccc2c3c1O[C@H]1C[C@@H](O)C=C[C@@]31CCN(C)C2 [Galanthamine hydrobromide, reference compound] |  |  |  |  | inhibition at 10 µg/mL [1]: 86.8 ± 2.9%
C[C@H]1COC2=C1C(=O)C(=O)c1c2ccc2c1CCCC2(C)C [cryptotanshinone] |  |  |  |  | cholinesterase inhibitory activity (cholinesterase): only moderate
Aegyptinone A |  |  |  |  | cytotoxic activity against several cancer cell lines [4]: moderate

Source: PMC7352922, “Norditerpenoids with Selective Anti-Cholinesterase Activity from the Roots of Perovskia atriplicifolia Benth” (International Journal of Molecular Sciences, 2020)
